Source: ChEMBL document CHEMBL1201862, “PubChem BioAssay data set” (2004)
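All cell lines were grown in 96-well plates and treated with compound for 48 hours. GI50 is the concentration that inhibits growth by half.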 Active and inactive are the calls of the source. No stated cut-off is given here; in the data, active = GI50 up to about 1.1 µM and inactive = higher.

How the values were obtained:
Assay in all cases: DTP human tumour cell line panel, 48 h
[1] = test system: NCI-H522
[2] = test system: LXFL 529
[3] = test system: XF498
[4] = test system: SF-268
[5] = test system: 786-0
[6] = test system: M19-MEL
[7] = test system: ACHN
[8] = test system: KM12
[9] = test system: KM-20L2
[10] = test system: UACC-257
[11] = test system: M14
[12] = test system: SNB-75
[13] = test system: MOLT-4
[14] = test system: UO-31
[15] = test system: OVCAR-8
[16] = test system: NCI-H226
[17] = test system: SK-MEL-5
[18] = test system: SF-295
[19] = test system: U-251
[20] = test system: OVCAR-5
[21] = test system: RPMI-8226
[22] = test system: HCC 2998
[23] = test system: DLD-1
[24] = test system: HT-29
[25] = test system: OVCAR-4
[26] = test system: SNB-78
[27] = test system: CCRF-CEM
[28] = test system: HOP-62
[29] = test system: SK-MEL-2
[30] = test system: A549
[31] = test system: UACC-62
[32] = test system: HCT-116
[33] = test system: SNB-19
[34] = test system: Malme-3M
[35] = test system: HOP-92
[36] = test system: SK-MEL-28
[37] = test system: CAKI-1
[38] = test system: NCI-H460
[39] = test system: K562
[40] = test system: NCI-H23
[41] = test system: EKVX
[42] = test system: TK-10
[43] = test system: IGROV-1
[44] = test system: COLO 205
[45] = test system: HOP-18
[46] = test system: HCT-15
[47] = test system: LOX IMVI
[48] = test system: SR
[49] = test system: DMS-114
[50] = test system: HL-60
[51] = test system: OVCAR-3
[52] = test system: SW-620
[53] = test system: SF-539
[54] = test system: MDA-MB-231
[55] = test system: RXF 393
[56] = test system: DMS-273
[57] = test system: MCF7
[58] = test system: SN12C
[59] = test system: T47D
[60] = test system: NCI/ADR-RES
[61] = test system: MDA-N
[62] = test system: MDA-MB-435
[63] = test system: DU-145
[64] = test system: Hs-578T
[65] = test system: PC-3
[66] = test system: SK-OV-3
[67] = test system: A498

Measured: GI50

COc1ccccc1NC(=O)CC(=O)N/N=C/c1ccc(N(CCC#N)S(=O)(=O)c2ccccc2)cc1
inactive: [1] > 100000 nM | [2] > 100000 nM | [3] > 100000 nM | [4] > 100000 nM | [5] > 100000 nM | [6] > 100000 nM | [7] > 100000 nM | [8] > 100000 nM | [9] > 100000 nM | [10] > 100000 nM | [11] > 100000 nM | [12] > 100000 nM | [13] > 100000 nM | [14] > 100000 nM | [15] > 100000 nM | [16] > 100000 nM | [17] > 100000 nM | [18] > 100000 nM | [19] > 100000 nM | [20] > 100000 nM | [21] > 100000 nM | [22] > 100000 nM | [23] > 100000 nM | [24] > 100000 nM | [25] > 100000 nM | [26] > 100000 nM | [27] > 100000 nM | [28] > 100000 nM | [29] > 100000 nM | [30] > 100000 nM | [31] > 100000 nM | [32] > 100000 nM | [33] > 100000 nM | [34] > 100000 nM | [35] > 100000 nM | [36] > 100000 nM | [37] > 100000 nM | [38] > 100000 nM | [39] > 100000 nM | [40] > 100000 nM | [41] > 100000 nM | [42] > 100000 nM | [43] > 100000 nM | [44] > 100000 nM | [45] > 100000 nM | [47] > 100000 nM | [48] > 100000 nM | [49] > 100000 nM | [50] > 100000 nM | [51] > 100000 nM | [52] > 100000 nM
> 100000 nM: [46]

C(=N/NC1=NCCN1)/c1c2ccccc2c(/C=N\NC2=NCCN2)c2ccccc12
inactive: [54] 6560 nM | [14] 9440 nM | [23] 2830 nM | [60] 88300 nM
19700 nM: [46]
active: [1] 69.8 nM | [3] 82.8 nM | [4] 73.8 nM | [5] 99.1 nM | [53] 100 nM | [6] 75.7 nM | [7] 221 nM | [8] 88.5 nM | [9] 265 nM | [55] 155 nM | [10] 344 nM | [11] 171 nM | [12] 73.5 nM | [56] 75.9 nM | [57] 56.8 nM | [13] 37.6 nM | [58] 111 nM | [15] 252 nM | [16] 96.6 nM | [17] 260 nM | [18] 383 nM | [19] 61 nM | [20] 239 nM | [21] 82.6 nM | [22] 140 nM | [59] 110 nM | [24] 92.3 nM | [25] 302 nM | [61] 113 nM | [26] 171 nM | [27] 40.8 nM | [28] 96.6 nM | [62] 37.6 nM | [29] 147 nM | [30] 36.9 nM | [31] 90.2 nM | [32] 60.3 nM | [33] 74.6 nM | [34] 160 nM | [63] 61.9 nM | [64] 60 nM | [35] 73.1 nM | [36] 259 nM | [37] 526 nM | [65] 68.7 nM | [38] 27.9 nM | [39] 66.4 nM | [66] 177 nM | [40] 129 nM | [41] 149 nM | [42] 1030 nM | [43] 211 nM | [44] 54 nM | [45] 168 nM | [67] 324 nM | [47] 93.1 nM | [48] 8.79 nM | [50] 52.8 nM | [51] 184 nM | [52] 113 nM
